Data taken from patent US20080181866A1, “Amido Anti-viral Compounds” (Genelabs Technologies, Inc., priority 2006, published 2008).

System: HCV replication
Assay: HCV replicon assay (luciferase) in ET (Huh-lucubineo-ET) cell line
Assay type: cell-based
Conditions: Hepatitis C virus, tested at 5 μM; ET replicon cells; luciferase activity measured 48-72 hours later; relative to no compound control
Description: A cell line, ET (Huh-lucubineo-ET) was used for screening of compounds of the present invention for inhibiting HCV replication. The ET cell line was stably transfected with RNA transcripts harboring a I389luc-ubi-neo/NS3-3′/ET; replicon with firefly luciferase-ubiquitin-neomycin phosphotransferase fusion protein and EMCV-IRES driven NS3-5B polyprotein containing the cell culture adaptive mutations (E1202G; T12801; K1846T) (Krieger at al, 2001 and unpublished). The ET cells were grown in DMEM (Dulbeco's Modified Eagle's Medium), supplemented with 10% fetal calf serum, 2 mM Glutamine, Penicillin (100 IU/mL)/Streptomycin (100 μg/mL), 1× nonessential amino acids, and 250 μg/mL G418 (“Geneticin”). They were all available through Life Technologies (Bethesda, Md.). The cells were plated at 0.5-1.0×10^4 cells/well in the 96 well plates and incubated for 24 hrs before adding testing compounds. Then the compounds were added to the cells to achieve a final concentration of 0.1 nM to 50 μM and a final DMSO concentration of 0.5%. Luciferase activity were measured 48-72 hours later by adding a lysis buffer and the substrate (Catalog number Glo-lysis buffer E2661 and Bright-Glo luciferase system E2620 Promega, Madison, Wis.). Cells should not be too confluent during the assay. Percent inhibition of replication was plotted relative to no compound control. Under the same condition, cytotoxicity of the compounds was determined using cell proliferation reagent, WST-1 (Roche, Germany). The compounds showing antiviral activities, but no significant cytotoxicities were chosen to determine EC50 and TC50. For these determinations, a 10 point 2-fold serial dilution for each compound was used, which spans a concentration range of 1000 fold. EC50 and similarly TC50 values were calculated by fitting % inhibition at each concentration to the following equation:
% inhibition=100%/[(IC50/[I])^b+1]
where b is Hill's coefficient.
In some preferred embodiments compounds of Formula I will have a % inhibition of at least 20% when tested at 5 μM. In other embodiments the compounds of Formula I will have a % inhibition of at least 50% when tested at 5 μM.

| Structure (SMILES) | inhibition at 5 µM [%] |
| --- | --- |
| O=C(NC1CC1)c1ccc(-c2csc(NC(=O)[C@@H]3CSC(c4ncco4)N3C(=O)OCc3ccccc3)n2)cc1 (mixture of isomers) [Compound 7056, (R)-4-[4-(4-Cyclopropylcarbamoyl-phenyl)-thiazol-2-ylcarbamoyl]-2-oxazol-2-yl-thiazolidine-3-carboxylic acid benzyl ester] | 99.9 |
| O=C(NC1CC1)c1ccc(-c2csc(NC(=O)[C@@H]3CSC(CC4CCOCC4)N3C(=O)OCc3ccccc3)n2)cc1 (mixture of isomers) [Compound 7004, (R)-4-[4-(4-Cyclopropylcarbamoyl-phenyl)-thiazol-2-ylcarbamoyl]-2-(tetrahydro-pyran-4-ylmethyl)-thiazolidine-3-carboxylic acid benzyl ester] | 99.9 |
| O=C(NC1CC1)c1ccc(NC(=O)[C@@H]2CSC(c3ccncc3)N2C(=O)OCc2ccccc2)cc1 (stereo in doubt) [Compound 7066, 4-(4-Cyclopropylcarbamoyl-phenylcarbamoyl)-2-pyridin-4-yl-thiazolidine-3-carboxylic acid benzyl ester] | 6.9 |
| O=C(Cc1ccc(NC(=O)[C@@H]2CSC(c3ccncc3)N2C(=O)OCc2ccccc2)cc1)NCc1ccccc1 (stereo in doubt) [Compound 7105, 4-[4-(Benzylcarbamoyl-methyl)-phenylcarbamoyl]-2-pyridin-4-yl-thiazolidine-3-carboxylic acid benzyl ester] | 74.2 |
| O=C(NC1CC1)c1ccc(-c2csc(NC(=O)[C@@H]3CSC(CCCCC(=O)N4CCOCC4)N3C(=O)OCc3ccccc3)n2)cc1 (stereo partly drawn) [Compound 7071, 4-[4-(4-Cyclopropylcarbamoyl-phenyl)-thiazol-2-ylcarbamoyl]-2-(5-morpholin-4-yl-5-oxo-pentyl)-thiazolidine-3-carboxylic acid benzyl ester] | 100 |
| O=C(NC1CC1)c1ccc(-c2csc(NC(=O)[C@@H]3CSC(C4CCOCC4)N3C(=O)[C@@H]3CCCO3)n2)cc1 (stereo partly drawn) [Compound 7069, 3-(Tetrahydro-furan-2-carbonyl)-2-(tetrahydro-pyran-4-yl)-thiazolidine-4-carboxylic acid [4-(4-cyclopropylcarbamoyl-phenyl)-thiazol-2-yl]-amide] | 98.8 |
| O=C(Cc1ccc(NC(=O)[C@@H]2CSC(c3ccncc3)N2C(=O)OCc2ccccc2)cc1)Nc1ccccc1 (stereo partly drawn) [Compound 7126, 4-(4-Phenylcarbamoylmethyl-phenylcarbamoyl)-2-pyridin-4-yl-thiazolidine-3-carboxylic acid benzyl ester] | 93.8 |
| O=C(NC1CC1)c1ccc(-c2csc(NC(=O)[C@@H]3Cc4ccccc4CN3C(=O)OCc3ccccc3)n2)cc1 [Compound 7002, (S)-3-[4-(4-Cyclopropylcarbamoyl-phenyl)-thiazol-2-ylcarbamoyl]-3,4-dihydro-1H-isoquinoline-2-carboxylic acid benzyl ester] | 97.5 |
| COc1ccc(CNC(=O)Cc2cccc(NC(=O)[C@@H]3CSC(c4ccncc4)N3C(=O)OCc3ccccc3)c2)cc1 (stereo partly drawn) [Compound 7128, 4-{3-[(4-Methoxy-benzylcarbamoyl)-methyl]-phenylcarbamoyl}-2-pyridin-4-yl-thiazolidine-3-carboxylic acid benzyl ester] | 97.5 |
| COc1cccc(C2SC[C@@H](C(=O)Nc3nc(-c4ccc(C(=O)NC5CC5)cc4)cs3)N2C(=O)OCc2ccccc2)c1 (mixture of isomers) [Compound 7016, (R)-4-[4-(4-Cyclopropylcarbamoyl-phenyl)-thiazol-2-ylcarbamoyl]-2-(3-methoxy-phenyl)-thiazolidine-3-carboxylic acid benzyl ester] | 98.5 |
| CC(=O)c1cccc(C2SC[C@@H](C(=O)Nc3nc(-c4ccc(C(=O)NC5CC5)cc4)cs3)N2C(=O)OCc2ccccc2)c1 (stereo partly drawn) [Compound 7120, 2-(3-Acetyl-phenyl)-4-[4-(4-cyclopropylcarbamoyl-phenyl)-thiazol-2-ylcarbamoyl]-thiazolidine-3-carboxylic acid benzyl ester] | 100 |
| O=C(Nc1cccnc1)c1ccc(-c2csc(NC(=O)[C@@H]3COC4(CCOCC4)N3C(=O)OCc3ccccc3)n2)cc1 [Compound 7140, 3-{4-[4-(Pyridin-3-ylcarbamoyl)-phenyl]-thiazol-2-ylcarbamoyl}-1,8-dioxa-4-aza-spiro[4.5]decane-4-carboxylic acid benzyl ester] | 99.9 |
| O=C(NC1CC1)c1ccc(-c2csc(NC(=O)[C@@H]3CSC(C4CCNCC4)N3C(=O)OCc3ccccc3)n2)cc1 (mixture of isomers) [Compound 7042, (R)-4-[4-(4-Cyclopropylcarbamoyl-phenyl)-thiazol-2-ylcarbamoyl]-2-piperidin-4-yl-thiazolidine-3-carboxylic acid benzyl ester] | 100 |
| O=C(Nc1ccccc1)[C@@H]1CSC(c2cccnc2)N1C(=O)OCc1ccccc1 (stereo partly drawn) [Compound 7018, 4-Phenylcarbamoyl-2-pyridin-3-yl-thiazolidine-3-carboxylic acid benzyl ester] | 47.6 |
| O=C(Nc1ccccc1)c1cccc(NC(=O)[C@@H]2CSC(c3ccncc3)N2C(=O)OCc2ccccc2)c1 (stereo in doubt) [Compound 7112, 4-(3-Phenylcarbamoyl-phenylcarbamoyl)-2-pyridin-4-yl-thizolidine-3-carboxylic acid benzyl ester] | 64.2 |
| O=C(NC1CC1)c1ccc(-c2csc(NC(=O)[C@@H]3COC(CC4CCOCC4)N3C(=O)OCc3ccccc3)n2)cc1 (stereo in doubt) [Compound 7095, 4-[4-(4-Cyclopropylcarbamoyl-phenyl)-thiazol-2-ylcarbamoyl]-2-(tetrahydropyran-4-ylmethyl)-oxazolidine-3-carboxylic acid benzyl ester] | 99.9 |
| O=C(NC1CC1)c1ccc(-c2csc(NC(=O)[C@@H]3Cc4ccccc4N3C(=O)OCc3ccccc3)n2)cc1 [Compound 7039, (S)-2-[4-(4-Cyclopropylcarbamoyl-phenyl)-thiazol-2-ylcarbamoyl]-2,3-dihydro-indole-1-carboxylic acid benzyl ester] | 100 |
| O=C(NC1CC1)c1ccc(-c2csc(NC(=O)[C@@H]3CSC(C4CCOC4)N3C(=O)OCc3ccccc3)n2)cc1 (stereo partly drawn) [Compound 7122, 4-[4-(4-Cyclopropylcarbamoyl-phenyl)-thiazol-2-ylcarbamoyl]-2-(tetrahydro-furan-3-yl)-thiazolidine-3-carboxylic acid benzyl ester] | 100 |
| N#Cc1cccc(C2SC[C@@H](C(=O)Nc3nc(-c4ccc(C(=O)NC5CC5)cc4)cs3)N2C(=O)OCc2ccccc2)c1 (mixture of isomers) [Compound 7033, (R)-2-(3-Cyano-phenyl)-4-[4-(4-cyclopropylcarbamoyl-phenyl)-thiazol-2-ylcarbamoyl]-thiazolidine-3-carboxylic acid benzyl ester] | 100 |
| O=C(Nc1nc(-c2ccccc2)cs1)[C@@H]1CSC(c2ccncc2)N1C(=O)OCc1ccccc1 (stereo partly drawn) [Compound 7026, 4-(4-Phenyl-thiazol-2-ylcarbamoyl)-2-pyridin-4-yl-thiazolidine-3-carboxylic acid benzyl ester] | 89.1 |
| Cn1ccnc1C1SC[C@@H](C(=O)Nc2nc(-c3ccc(C(=O)NC4CC4)cc3)cs2)N1C(=O)OCc1ccccc1 (mixture of isomers) [Compound 7053, (R)-4-[4-(4-Cyclopropylcarbamoyl-phenyl)-thiazol-2-ylcarbamoyl]-2-(1-methyl-1H-imidazol-2-yl)-thiazolidine-3-carboxylic acid benzyl ester] | 99.6 |
